# Experimental data taken from article PMC7616177, “From structure to clinic: Design of a muscarinic M1 receptor agonist with the potential to treat Alzheimer’s disease” (Cell, 2021).
# Assays:
# [1] = tested on: Cynomolgus macaques; experiment: Resting state qEEG in non-human primates; type: in vivo, Macaca fasicularis; settings: subcutaneous, 0.3 and 3 mg/kg
# Source text: 6 adult male Cynomolgus macaques (Macaca fasicularis; 8-10 kg; 12-15 years old) were used for EEG studies. These animals had been used previously on other studies and were not considered to be pharmacologically naive. Subjects were housed in a temperature-controlled recording room and are maintained on a 12-hour light/dark cycle. The animals had access to water ad libitum and were fed a full daily regimen of food each day (Purina Animal Nutrition, Gray Summit, MO) enriched with fresh fruit and/or vegetables. All studies are conducted in compliance with USDA, NIH and SRI International IACUC guidelines. SRI International is an AAALAC accredited institution. […] Following the acclimation period, animals were dosed subcutaneously with vehicle or compound and EEG activity was recorded for 120 min. […]
# Data was analyzed using existing, customized MATLAB scripts with the EEGLAB toolbox. […] Mean absolute power, log transformed absolute power, and relative power was calculated based on each frequency band’s contribution to the total absolute power (i.e., % power). The mean normalized power was subsequently calculated by dividing each frequency band’s absolute power in the drug condition with the corresponding power in the control condition for each individual animal (i.e., use each animal as its own control) and then average across subjects. […]
# [2] = tested on: healthy elderly subjects; experiment: Clinical fMRI Arena task in healthy elderly subjects; type: in vivo, human; parameters: Activation across a-priori regions during encoding and retrieval / Left hippocampus activation effect: dose or concentration left out as unconfirmed
# Source text: All functional MRI images were acquired on a 3T scanner using gradient echo-echo planar imaging (GRE-EPI: TR: […]; TE: 30 ms; 90-degree flip angle; slices: 53; voxel size 3.75x 3.75 mm) and an 8-channel head coil. All data processing was done using Statistical Parameteric Mapping (SPM) version 5 software. All functional images were co-registered to subjects own T1 weighted structural image for anatomical localization, realigned using a least-squares approach and a 6 parameter (rigid body) spatial translation, normalized to Montreal neurological institute (MNI) using a high dimensional, non-linear transformation and smoothed using 3D 7 mm Gaussian filter. A high pass filter was applied to remove low temporal frequency drift. Bilateral hippocampal and caudate masks based on previous publications using the Arena task were used for analysis ([Antonova et al., 2009], [2011]). The masks consisted of spheres of radius 6mm centered on co-ordinates from these papers.
# A block design was used to assess functional activation during encoding, retrieval, and rest (control) conditions of the Arena task. Beta-estimates of functional response during each condition were created by modeling signal changes convolved with a double gamma hemodynamic response function with peak responses at 4 and 8 s following stimulus onset for each individual. In the first level analysis, difference in beta estimates for encoding versus rest, and retrieval versus rest were derived. […] Functional responses in the a-priori ROIs were extracted using hippocampal, ventral striatum, and caudate masks derived from subject own T1 weighted image. To test for drug effects in these pre-specified regions an ANOVA including fixed-effect terms representing treatment group, study site as a between subject factor, and baseline MMSE score as covariate was used.
# [3] = Non-human primate exposure; type: in vivo, non-human primates; settings: for Predicted brain exposure Cu,br: non-human primates
# [4] = tested on: Wistar rats; experiment: Novel object recognition; type: in vivo, rat
# Method: Male adult Wistar rats (Harlan, UK; approximately 11 weeks of age) were handled for two days prior to the experiment. […] Donepezil (0.1 mg/kg) and galanthamine (3 mg/kg) were administered via intraperitoneal injection (in saline) 60 min prior to training. Following a 10-min habituation period, each rat was placed into the test arena comprising an open-field arena in the presence of two identical plastic shapes and allowed to explore for 5 min. The rat was then returned to its home cage. After 24 hours, the rat was returned to the test arena in the presence of one familiar object, and one novel object. The time exploring each object was recorded using image analysis software (Ethovision XT, Noldus, UK).
# [5] = 4-day repeat dose tolerability assessment in dogs; settings: beagle, dog
smiles,measurement,setting,value
"CCOC(=O)N1CCC[C@H](N2CCC(C(=O)NC3(C)CCC3)CC2)CC1 [HTL9936, ethyl (S)-4-(4-((1-methylcyclobutyl)carbamoyl)piperidin-1-yl)azepane-1-carboxylate]",qEEG power,[1],increased delta power
same,Activation across a-priori regions during encoding and retrieval,[2]; 10.1 dose (so in the source),increased bilateral activation
same,Left hippocampus activation effect,[2]; 40.3 dose (so in the source),smaller effect
same,Arena task performance,"[2]; healthy elderly, i.v. infusion",did not significantly improve task performance
same,fMRI activation during encoding of spatial cues,"[2]; healthy elderly, i.v. infusion",significant drug by activation interaction effect in the left hippocampus
same,Predicted steady-state plasma concentration,"[2]; human, high dose 40.3 mg i.v.",100 ng/mL
same,Predicted exposure as multiple of human M1-receptor in vitro potency,"[2]; human, low and high doses",0.2- to 3.4 fold
same,Predicted steady-state plasma concentration,"[2]; human, low dose 10.1 mg i.v.",25 ng/mL
same,"Predicted brain exposure Cu,br",[3]; 0.3 mg/kg subcutaneous,20 nM
same,"Predicted brain exposure Cu,br",[3]; 3 mg/kg subcutaneous,198 nM
same,Oral bioavailability,[3]; primates,low oral bioavailability
same,Effective dose,"[4]; rat novel object recognition, p.o.",10 mg/kg
same,Effect compared with positive controls donepezil and galantamine,"[4]; rat, 10 mg/kg p.o.",significantly better than the positive controls
same,Cmax at 4 day,[5]; plasma,> 32 µg/mL
same,concentration at 4 day,[5]; plasma (unbound),60 µM
